Measurements: ChEMBL document CHEMBL1157539, “Thousands of chemical starting points for antimalarial lead identification” (Nature, 2010)

The molecules below were run on Plasmodium falciparum (assay: GSK_TCMDC: Inhibition of Plasmodium falciparum 3D7 in whole erythrocytes, using parasite LDH activity as an index of growth.). Conditions: Plasmodium falciparum, 3D7.
Assay type: functional, organism-based

Q: Which XC50 does the source give for CS(=O)(=O)c1cccc(-c2cnc3[nH]cc(-c4cccc(CCN)c4)c3c2)c1 here?
A: Its XC50 is 1560 nM.

Q: With COc1ccc(S(=O)(=O)NC2CCN(CCNC(=O)Nc3cc(C)nc4ccccc34)C2)cc1 (stereo not drawn) as the molecule, how does the XC50 read?
A: The XC50 was 1190 nM.

Q: With CCN(CCCN1CCCCC1)c1cc(C)nc(Nc2ccc(C)c(F)c2)n1 as the molecule, how does the XC50 read?
A: Its XC50 is 273 nM.

Q: With Cc1cc(Br)cnc1CCCCNC1=NC(=O)CN1C as the molecule, how does the XC50 read?
A: The XC50 was 366 nM.

Q: With CC(C)c1ccc(C=CC(=O)N2CCC(CCN3CCC(c4c[nH]c5ccccc45)CC3)CC2)cc1 as the molecule, how does the XC50 read?
A: Its XC50 is 1260 nM.

Q: For COc1cc(NC(=O)CCCN2CCN(c3cccc(Cl)c3Cl)CC2)ccc1N1CCN(C(C)C)CC1, which XC50 is on record?
A: Its XC50 is 946 nM.

Q: How did the XC50 turn out when O=C(/C=C/C=C/c1ccccc1)NCCCCCN1CCC(c2c[nH]c3ccccc23)CC1 was run?
A: The XC50 was 1170 nM.

Q: CCOc1ccc(C(=O)N2CCOC(CCN3CCC(c4ccccc4)CC3)(c3ccc(Cl)c(Cl)c3)C2)cc1 (stereo not drawn) was tested. Which XC50 did it give?
A: Its XC50 is 854 nM.

Q: For Cc1cc(C2CCN(CCCCNC(=O)c3ccc(NC(=O)c4ccc(Cl)cc4)cc3)CC2)c(C)cc1OCc1cccnc1, which XC50 is on record?
A: Its XC50 is 603 nM.

Q: CCCCCCCCCN1CC[C@@H](CCCc2ccnc3ccc(O)cc23)[C@@H](CC)C1 was tested. Which XC50 did it give?
A: Its XC50 is 290 nM.

Q: Cc1cccc(CN2CCCN(Cc3ccc(C(=O)Nc4ccc(C)c(F)c4)cc3)CC2)c1 was tested. Which XC50 did it give?
A: Its XC50 is 1060 nM.

Q: For O=C(c1ccco1)N1CCN(c2nc(-c3ccc(Cl)cc3)nc3ccccc23)CC1, which XC50 is on record?
A: The XC50 was 934 nM.

Q: With CCCCCc1cc(O)c2c(c1)OC(C)(C)CC2C1=CCN(Cc2ccccc2)CC1 (stereo not drawn) as the molecule, how does the XC50 read?
A: Its XC50 is 767 nM.

Q: Cn1cnnc1Sc1ccc(CN2CCOc3ccc(C4=CCCCC4)cc3C2)o1 was tested. Which XC50 did it give?
A: Its XC50 is 849 nM.

Q: O=C(Nc1nccs1)c1cc(-c2cccnc2)nc2ccc(Br)cc12 was tested. Which XC50 did it give?
A: Its XC50 is 403 nM.

Q: For CN1CCC(NCc2ccc(-c3cnc(NCc4ccccc4)nc3)cc2)CC1, which XC50 is on record?
A: Its XC50 is 827 nM.

Q: Which XC50 does the source give for CCCCOC(=O)[C@H](CCC)NC(=O)c1ccc(NS(=O)(=O)c2ccc3nc(N)[nH]c(=O)c3c2)cc1 here?
A: Its XC50 is 198 nM.

Q: Which XC50 does the source give for Cc1cc(F)ccc1-c1nc(NCC(O)CNCCc2ccccc2)nc2c1ccc(=O)n2-c1c(F)cccc1F (stereo not drawn) here?
A: Its XC50 is 539 nM.

Q: With COc1ccc(-c2nc(NCc3ccccc3)c3cc(OC)c(OC)cc3n2)cc1 as the molecule, how does the XC50 read?
A: The XC50 was 398 nM.

Q: Which XC50 does the source give for Cc1cc(C(=O)Nc2nc(-c3ccccn3)nc3ccsc23)no1 here?
A: Its XC50 is 807 nM.

Q: With COc1cc(C(=O)N2CCOC(CCN3CCC(Cc4ccc(F)cc4)CC3)(c3ccc(Cl)c(Cl)c3)C2)cc(OC)c1OC (stereo not drawn) as the molecule, how does the XC50 read?
A: Its XC50 is 902 nM.

Q: O=C(Nc1ccc(OC2CCN(Cc3ccccc3)C2)c(Cl)c1)c1cccs1 (stereo not drawn) was tested. Which XC50 did it give?
A: The XC50 was 388 nM.

Q: Which XC50 does the source give for O=C(Nc1ccc(C(=O)Nc2cccc(C3=NCCN3)c2)cc1)Nc1ccc(C2=NCCN2)cc1 here?
A: The XC50 was 96 nM.

Q: Cc1ccc(C2CC(c3cccs3)=NN2C(=O)c2ccc(Br)o2)cc1 (stereo not drawn) was tested. Which XC50 did it give?
A: The XC50 was 887 nM.

Q: Cc1cc(Oc2ccc(-n3ccnc3)cc2)nc(N2CCN(CCCN3CCCC3)CC2)n1 was tested. Which XC50 did it give?
A: The XC50 was 928 nM.

Q: How did the XC50 turn out when CCc1cn(C)c2c(N3CCCC3=O)cc(C(=O)N[C@@H](Cc3ccccc3)[C@H](O)CNC(C)(C)CCCC(C)C)cc12 was run?
A: The XC50 was 487 nM.

Q: Which XC50 does the source give for Cc1cc(C)c(NC(=O)N[C@H]2CCN(CCCCCNC(=O)/C=C/c3ccc(Cl)c(Cl)c3)C2)c(C)c1 here?
A: The XC50 was 950 nM.

Q: Which XC50 does the source give for COc1cc(Cl)c(C)cc1-n1cc(C(=O)c2cc(Br)ccc2O)cc(C#N)c1=O here?
A: The XC50 was 874 nM.

Q: How did the XC50 turn out when O=c1cc(NCCC(CNCc2cc3ccccc3o2)NCc2cc(Br)cc(Br)c2)[nH]c2ccccc12 (stereo not drawn) was run?
A: The XC50 was 1210 nM.

Q: CCn1ccc2c(N3CCCCS3(=O)=O)cc(C(=O)N[C@@H](Cc3ccccc3)[C@H](O)CNC(C)(C)c3cccc(C(F)(F)F)c3)cc21 was tested. Which XC50 did it give?
A: The XC50 was 133 nM.

Q: For COc1ccc(CC2(c3ccc(F)cc3)N=C(N)N(CCCc3ccc(F)c(F)c3)C2=O)cc1 (stereo not drawn), which XC50 is on record?
A: The XC50 was 779 nM.

Q: How did the XC50 turn out when c1ccc(CN2CCN(CCNc3c4ccccc4nc4ccccc34)CC2)cc1 was run?
A: The XC50 was 876 nM.

Q: With COc1ccccc1C1CCN(C2CCC(NC(=O)/C=C/c3cc(C(F)(F)F)ccc3F)CC2)CC1 (stereo not drawn) as the molecule, how does the XC50 read?
A: Its XC50 is 868 nM.

Q: With CN1CCN(CCCN(Cc2cccc(-c3cccc(CNC4CCCC4)c3)c2)C(=O)CCC2CCCC2)CC1 as the molecule, how does the XC50 read?
A: The XC50 was 675 nM.

Q: c1cc(-c2ccc(CN3CCCCC3)cc2)cc(-c2nc3ccccc3[nH]2)c1 was tested. Which XC50 did it give?
A: The XC50 was 585 nM.

Q: With O=c1cc(NCCCNCc2ccccc2-c2ccccc2)[nH]c2ccccc12 as the molecule, how does the XC50 read?
A: Its XC50 is 975 nM.

Q: With CC(C)C(=O)ONC1=NC(C)(C)N(OCCCOc2cc(Cl)c(Cl)cc2Cl)C(NOC(=O)C(C)C)=N1 as the molecule, how does the XC50 read?
A: Its XC50 is 26.6 nM.

Q: With O=C(Nc1ccc(-c2ccccc2)cc1)Nc1cccc(OCCN2CCCC2)c1 as the molecule, how does the XC50 read?
A: The XC50 was 935 nM.
